# Experimental data reported in the supplement of paper PMC9663587.
# Compound: CN1CC[C@H](c2c(O)cc(O)c3c(=O)cc(-c4ccccc4Cl)oc23)[C@H](O)C1 [Flavopiridol]
# Assay: GR value, 72 h; higher = faster growth (1 = untreated, <0 = killing);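 also: breast cancer and non-malignant breast epithelial lines, nine half-log doses, viable cells counted by Hoechst and LIVE/DEAD dye imaging versus time-zero plates and DMSO controls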
# Conditions: 0.0001 µM
row,Cell Line,GR value
1,SUM52PE,1.07 GR
2,SUM149,0.972 GR
3,SUM159,1.01 GR
4,SUM190PT,0.999 GR
5,SUM229PE,0.982 GR
6,T47D,0.983 GR

# Same assay, conditions: 0.0003162 µM
row,Cell Line,GR value
1,SUM52PE,1.06 GR
2,SUM149,1.01 GR
3,SUM159,0.998 GR
4,SUM190PT,1.06 GR
5,SUM229PE,0.93 GR
6,T47D,1.05 GR

# Same assay, conditions: 0.001 µM
row,Cell Line,GR value
1,SUM52PE,0.942 GR
2,SUM149,0.951 GR
3,SUM159,0.973 GR
4,SUM190PT,0.935 GR
5,SUM229PE,0.925 GR
6,T47D,0.945 GR

# Same assay, conditions: 0.003162 µM
row,Cell Line,GR value
1,SUM52PE,0.915 GR
2,SUM149,0.944 GR
3,SUM159,0.925 GR
4,SUM190PT,0.883 GR
5,SUM229PE,0.954 GR
6,T47D,1.05 GR

# Same assay, conditions: 0.01 µM
row,Cell Line,GR value
1,SUM52PE,1.02 GR
2,SUM149,0.862 GR
3,SUM159,0.941 GR
4,SUM190PT,0.661 GR
5,SUM229PE,0.927 GR
6,T47D,0.897 GR

# Same assay, conditions: 0.03162 µM
row,Cell Line,GR value
1,SUM52PE,0.945 GR
2,SUM149,0.964 GR
3,SUM159,0.885 GR
4,SUM190PT,0.785 GR
5,SUM229PE,0.914 GR
6,T47D,0.808 GR

# Same assay, conditions: 0.1 µM
row,Cell Line,GR value
1,SUM52PE,0.8 GR
2,SUM149,0.788 GR
3,SUM159,0.631 GR
4,SUM190PT,0.58 GR
5,SUM229PE,0.559 GR
6,T47D,0.548 GR

# Same assay, conditions: 0.3162 µM
row,Cell Line,GR value
1,SUM52PE,0.357 GR
2,SUM149,0.177 GR
3,SUM159,0.132 GR
4,SUM190PT,0.0012 GR
5,SUM229PE,0.0326 GR
6,T47D,0.148 GR

# Same assay, conditions: 1 µM
row,Cell Line,GR value
1,SUM52PE,-0.26 GR
2,SUM149,-0.591 GR
3,SUM159,-0.0516 GR
4,SUM190PT,-0.382 GR
5,SUM229PE,-0.182 GR
6,T47D,-0.153 GR

# Compound: CCN1CCN(Cc2ccc(Nc3ncc(F)c(-c4cc(F)c5nc(C)n(C(C)C)c5c4)n3)nc2)CC1
# Assay: as above
# Conditions: 0.001 µM
row,Cell Line,GR value
1,SUM52PE,0.991 GR
2,SUM149,0.973 GR
3,SUM159,0.989 GR
4,SUM190PT,0.779 GR
5,SUM229PE,0.924 GR
6,T47D,0.86 GR

# Same assay, conditions: 0.003162 µM
row,Cell Line,GR value
1,SUM52PE,0.962 GR
2,SUM149,1.02 GR
3,SUM159,0.962 GR
4,SUM190PT,0.586 GR
5,SUM229PE,0.888 GR
6,T47D,0.604 GR

# Same assay, conditions: 0.01 µM
row,Cell Line,GR value
1,SUM52PE,0.86 GR
2,SUM149,0.875 GR
3,SUM159,0.897 GR
4,SUM190PT,0.444 GR
5,SUM229PE,0.831 GR
6,T47D,0.244 GR

# Same assay, conditions: 0.03162 µM
row,Cell Line,GR value
1,SUM52PE,0.766 GR
2,SUM149,0.751 GR
3,SUM159,0.773 GR
4,SUM190PT,0.349 GR
5,SUM229PE,0.727 GR
6,T47D,0.0789 GR

# Same assay, conditions: 0.1 µM
row,Cell Line,GR value
1,SUM52PE,0.619 GR
2,SUM149,0.666 GR
3,SUM159,0.662 GR
4,SUM190PT,0.395 GR
5,SUM229PE,0.611 GR
6,T47D,0.166 GR

# Same assay, conditions: 0.3162 µM
row,Cell Line,GR value
1,SUM52PE,0.497 GR
2,SUM149,0.562 GR
3,SUM159,0.558 GR
4,SUM190PT,0.309 GR
5,SUM229PE,0.56 GR
6,T47D,0.117 GR

# Same assay, conditions: 1 µM
row,Cell Line,GR value
1,SUM52PE,0.459 GR
2,SUM149,0.417 GR
3,SUM159,0.405 GR
4,SUM190PT,0.343 GR
5,SUM229PE,0.439 GR
6,T47D,0.171 GR

# Same assay, conditions: 3.162 µM
row,Cell Line,GR value
1,SUM52PE,0.365 GR
2,SUM149,0.375 GR
3,SUM159,0.308 GR
4,SUM190PT,0.259 GR
5,SUM229PE,0.343 GR
6,T47D,0.0597 GR

# Same assay, conditions: 10 µM
row,Cell Line,GR value
1,SUM52PE,0.289 GR
2,SUM149,0.0944 GR
3,SUM159,-0.0742 GR
4,SUM190PT,-0.611 GR
5,SUM229PE,0.284 GR
6,T47D,-0.03 GR

# Compound: CN(C)C(=O)c1cc2cnc(Nc3ccc(N4CCNCC4)cn3)nc2n1C1CCCC1 [LEE011/Ribociclib]
# Assay: as above
# Conditions: 0.001 µM
row,Cell Line,GR value
1,SUM52PE,0.991 GR
2,SUM149,0.951 GR
3,SUM159,0.942 GR
4,SUM190PT,0.777 GR
5,SUM229PE,0.91 GR
6,T47D,0.614 GR

# Same assay, conditions: 0.003162 µM
row,Cell Line,GR value
1,SUM52PE,0.857 GR
2,SUM149,0.904 GR
3,SUM159,0.892 GR
4,SUM190PT,0.632 GR
5,SUM229PE,0.911 GR
6,T47D,0.624 GR

# Same assay, conditions: 0.01 µM
row,Cell Line,GR value
1,SUM52PE,0.861 GR
2,SUM149,0.916 GR
3,SUM159,0.835 GR
4,SUM190PT,0.576 GR
5,SUM229PE,0.822 GR
6,T47D,0.407 GR

# Same assay, conditions: 0.03162 µM
row,Cell Line,GR value
1,SUM52PE,0.86 GR
2,SUM149,0.885 GR
3,SUM159,0.814 GR
4,SUM190PT,0.542 GR
5,SUM229PE,0.806 GR
6,T47D,0.413 GR

# Same assay, conditions: 0.1 µM
row,Cell Line,GR value
1,SUM52PE,0.822 GR
2,SUM149,0.776 GR
3,SUM159,0.786 GR
4,SUM190PT,0.453 GR
5,SUM229PE,0.758 GR
6,T47D,0.297 GR

# Same assay, conditions: 0.3162 µM
row,Cell Line,GR value
1,SUM52PE,0.797 GR
2,SUM149,0.771 GR
3,SUM159,0.73 GR
4,SUM190PT,0.46 GR
5,SUM229PE,0.722 GR
6,T47D,0.244 GR

# Same assay, conditions: 1 µM
row,Cell Line,GR value
1,SUM52PE,0.69 GR
2,SUM149,0.764 GR
3,SUM159,0.769 GR
4,SUM190PT,0.0072 GR
5,SUM229PE,0.728 GR
6,T47D,0.174 GR

# Same assay, conditions: 3.162 µM
row,Cell Line,GR value
1,SUM52PE,0.681 GR
2,SUM149,0.669 GR
3,SUM159,0.63 GR
4,SUM190PT,0.199 GR
5,SUM229PE,0.633 GR
6,T47D,0.151 GR

# Same assay, conditions: 10 µM
row,Cell Line,GR value
1,SUM52PE,0.54 GR
2,SUM149,0.599 GR
3,SUM159,0.449 GR
4,SUM190PT,0.383 GR
5,SUM229PE,0.562 GR
6,T47D,0.163 GR

# Compound: CN(C)C/C=C/C(=O)Nc1ccc(C(=O)N2CCC[C@@H](Nc3ncc(Cl)c(-c4c[nH]c5ccccc45)n3)C2)cc1 [THZ531]
# Assay: as above
# Conditions: 0.0001 µM
row,Cell Line,GR value
1,SUM52PE,1.05 GR
2,SUM149,0.986 GR
3,SUM159,0.957 GR
4,SUM190PT,1.07 GR
5,SUM229PE,1.03 GR
6,T47D,1.06 GR

# Same assay, conditions: 0.0003162 µM
row,Cell Line,GR value
1,SUM52PE,0.984 GR
2,SUM149,0.996 GR
3,SUM159,0.95 GR
4,SUM190PT,0.955 GR
5,SUM229PE,0.991 GR
6,T47D,0.984 GR

# Same assay, conditions: 0.001 µM
row,Cell Line,GR value
1,SUM52PE,0.937 GR
2,SUM149,0.931 GR
3,SUM159,0.98 GR
4,SUM190PT,0.949 GR
5,SUM229PE,0.943 GR
6,T47D,1.04 GR

# Same assay, conditions: 0.003162 µM
row,Cell Line,GR value
1,SUM52PE,0.994 GR
2,SUM149,1.03 GR
3,SUM159,0.972 GR
4,SUM190PT,0.966 GR
5,SUM229PE,1.01 GR
6,T47D,0.925 GR

# Same assay, conditions: 0.01 µM
row,Cell Line,GR value
1,SUM52PE,1.02 GR
2,SUM149,1.05 GR
3,SUM159,0.974 GR
4,SUM190PT,1.12 GR
5,SUM229PE,1.07 GR
6,T47D,1.15 GR

# Same assay, conditions: 0.03162 µM
row,Cell Line,GR value
1,SUM52PE,0.978 GR
2,SUM149,0.999 GR
3,SUM159,1.03 GR
4,SUM190PT,0.889 GR
5,SUM229PE,1.08 GR
6,T47D,1.06 GR

# Same assay, conditions: 0.1 µM
row,Cell Line,GR value
1,SUM52PE,0.818 GR
2,SUM149,0.963 GR
3,SUM159,0.979 GR
4,SUM190PT,-0.322 GR
5,SUM229PE,0.915 GR
6,T47D,0.675 GR

# Same assay, conditions: 0.3162 µM
row,Cell Line,GR value
1,SUM52PE,0.186 GR
2,SUM149,0.598 GR
3,SUM159,0.965 GR
4,SUM190PT,-0.725 GR
5,SUM229PE,0.506 GR
6,T47D,-0.121 GR

# Same assay, conditions: 1 µM
row,Cell Line,GR value
1,SUM52PE,-0.226 GR
2,SUM149,-0.539 GR
3,SUM159,0.61 GR
4,SUM190PT,-0.492 GR
5,SUM229PE,-0.133 GR
6,T47D,-0.102 GR

# Compound: C=CC(=O)Nc1ccc(C(=O)Nc2[nH]nc3c2CN(C(=O)N[C@H](CN(C)C)c2ccccc2)C3(C)C)cc1 [YKL-5-124]
# Assay: as above
# Conditions: 0.001 µM
row,Cell Line,GR value
1,SUM52PE,0.72 GR
2,SUM149,0.351 GR
3,SUM159,0.554 GR
4,SUM190PT,0.557 GR
5,SUM229PE,0.467 GR
6,T47D,0.51 GR

# Same assay, conditions: 0.003162 µM
row,Cell Line,GR value
1,SUM52PE,0.654 GR
2,SUM149,0.226 GR
3,SUM159,0.292 GR
4,SUM190PT,0.365 GR
5,SUM229PE,0.321 GR
6,T47D,0.332 GR

# Same assay, conditions: 0.01 µM
row,Cell Line,GR value
1,SUM52PE,0.573 GR
2,SUM149,0.228 GR
3,SUM159,0.169 GR
4,SUM190PT,0.267 GR
5,SUM229PE,0.295 GR
6,T47D,0.172 GR

# Same assay, conditions: 0.03162 µM
row,Cell Line,GR value
1,SUM52PE,0.552 GR
2,SUM149,0.141 GR
3,SUM159,0.149 GR
4,SUM190PT,0.198 GR
5,SUM229PE,0.291 GR
6,T47D,0.143 GR

# Same assay, conditions: 0.1 µM
row,Cell Line,GR value
1,SUM52PE,0.437 GR
2,SUM149,0.132 GR
3,SUM159,0.136 GR
4,SUM190PT,0.212 GR
5,SUM229PE,0.27 GR
6,T47D,0.0629 GR
